The values below come from ChEMBL document CHEMBL5465560, “Selectivity Literature for EUbOPEN Chemogenomic Library” (2024).

For orientation: IC50 means the point on the concentration scale where inhibition reaches its midpoint.

Experiment [1] has as its target 5-hydroxytryptamine receptor 2A (Homo sapiens, UniProt P28223). Briefly: Selectivity interaction (Panel of kinases, GPCRs, ion channels and transporters (enzymatic assay)) EUB0000266bCl HTR2A.
In experiment [2] the target is 4-aminobutyrate aminotransferase, mitochondrial (Homo sapiens, UniProt P80404). Briefly: Selectivity interaction (GPCR panel (PDSP screen)) EUB0001079a ABAT. The conditions noted are these: at 10 µM.
The target in experiment [3] is [Pyruvate dehydrogenase (acetyl-transferring)] kinase isozyme 1, mitochondrial (Homo sapiens, UniProt Q15118). Briefly: Selectivity interaction (Millipore kinase profiler) EUB0000124b PDK1. To be noted: at 10 µM.
Experiment [4] has as its system Epidermal growth factor receptor (Homo sapiens), P00533 [G719C]. Briefly: (§1) Selectivity interaction (KinomeScan (DiscoverX)) EUB0001049a EGFR. The conditions noted are these: at 1 µM.
The subject of experiment [5] is Epidermal growth factor receptor (Homo sapiens), P00533 [G719S]. The experiment is described as §1. To be noted: at 1 µM.
In experiment [6] the test system is Epidermal growth factor receptor (Homo sapiens), P00533 [L858R,T790M]. The experiment is described as §1. To be noted: at 1 µM.
The subject of experiment [7] is Epidermal growth factor receptor (Homo sapiens), P00533 [L858R]. The experiment is described as §1. The conditions noted are these: at 1 µM.
The test system of experiment [8] is Epidermal growth factor receptor (Homo sapiens), P00533 [L861Q]. The experiment is described as §1. The conditions noted are these: at 1 µM.
For experiment [9], the system named is Epidermal growth factor receptor (Homo sapiens), P00533 [T790M]. The experiment is described as §1. To be noted: at 1 µM.
Experiment [10] relates to Epidermal growth factor receptor (Homo sapiens), P00533 [UNDEFINED MUTATION]. Described as §1. To be noted: at 1 µM.
Experiment [11] concerns the target Epidermal growth factor receptor (Homo sapiens, UniProt P00533). The description is as §1. To be noted: at 1 µM.
The target of experiment [12] is Homeodomain-interacting protein kinase 1 (Homo sapiens, UniProt Q86Z02). Kind of experiment: Selectivity interaction (KinomeScan (DiscoverX)) EUB0001049a HIPK1. To be noted: at 1 µM.
Experiment [13] has as its target T1, Hormonally up-regulated neu tumor-associated kinase (Homo sapiens) (UniProt P57058).
T1 sequence (whole entry): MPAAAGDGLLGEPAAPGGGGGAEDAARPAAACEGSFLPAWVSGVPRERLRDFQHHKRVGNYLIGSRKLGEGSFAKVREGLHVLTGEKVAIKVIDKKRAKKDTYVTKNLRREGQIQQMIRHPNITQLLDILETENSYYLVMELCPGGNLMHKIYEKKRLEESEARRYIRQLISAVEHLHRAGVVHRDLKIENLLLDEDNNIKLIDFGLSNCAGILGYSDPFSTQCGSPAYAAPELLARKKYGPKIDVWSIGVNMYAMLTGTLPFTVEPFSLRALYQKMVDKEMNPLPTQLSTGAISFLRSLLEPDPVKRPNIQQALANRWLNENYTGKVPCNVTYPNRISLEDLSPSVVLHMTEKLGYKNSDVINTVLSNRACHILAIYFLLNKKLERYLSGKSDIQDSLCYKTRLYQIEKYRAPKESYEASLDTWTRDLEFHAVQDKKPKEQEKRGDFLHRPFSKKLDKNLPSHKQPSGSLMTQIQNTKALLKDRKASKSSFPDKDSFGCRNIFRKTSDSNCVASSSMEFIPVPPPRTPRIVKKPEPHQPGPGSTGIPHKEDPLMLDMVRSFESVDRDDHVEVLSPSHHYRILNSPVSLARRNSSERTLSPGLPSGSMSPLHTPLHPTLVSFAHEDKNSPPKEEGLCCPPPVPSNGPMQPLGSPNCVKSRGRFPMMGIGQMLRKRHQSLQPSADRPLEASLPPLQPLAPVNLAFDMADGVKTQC
Kind of experiment: Selectivity interaction (KinomeScan (DiscoverX)) EUB0000695a HUNK. The conditions noted are these: at 100 nM.

Experiment [14] concerns the target High affinity choline transporter 1 (Homo sapiens) (UniProt Q9GZV3). Kind of experiment: Selectivity interaction (Eurofins CEREP Diversity Profile (receptors and ion channels)) EUB0000279b SLC5A7. To be noted: at 10 µM.
In experiment [15] the target is Myosin light chain kinase, smooth muscle (Homo sapiens, UniProt Q15746). Briefly: Selectivity interaction (KinomeScan (DiscoverX)) EUB0000666a MYLK. The conditions noted are these: at 10 µM.
Experiment [16] addresses T2, Ephrin type-B receptor 3 (Homo sapiens) (UniProt P54753).
T2 sequence (whole entry): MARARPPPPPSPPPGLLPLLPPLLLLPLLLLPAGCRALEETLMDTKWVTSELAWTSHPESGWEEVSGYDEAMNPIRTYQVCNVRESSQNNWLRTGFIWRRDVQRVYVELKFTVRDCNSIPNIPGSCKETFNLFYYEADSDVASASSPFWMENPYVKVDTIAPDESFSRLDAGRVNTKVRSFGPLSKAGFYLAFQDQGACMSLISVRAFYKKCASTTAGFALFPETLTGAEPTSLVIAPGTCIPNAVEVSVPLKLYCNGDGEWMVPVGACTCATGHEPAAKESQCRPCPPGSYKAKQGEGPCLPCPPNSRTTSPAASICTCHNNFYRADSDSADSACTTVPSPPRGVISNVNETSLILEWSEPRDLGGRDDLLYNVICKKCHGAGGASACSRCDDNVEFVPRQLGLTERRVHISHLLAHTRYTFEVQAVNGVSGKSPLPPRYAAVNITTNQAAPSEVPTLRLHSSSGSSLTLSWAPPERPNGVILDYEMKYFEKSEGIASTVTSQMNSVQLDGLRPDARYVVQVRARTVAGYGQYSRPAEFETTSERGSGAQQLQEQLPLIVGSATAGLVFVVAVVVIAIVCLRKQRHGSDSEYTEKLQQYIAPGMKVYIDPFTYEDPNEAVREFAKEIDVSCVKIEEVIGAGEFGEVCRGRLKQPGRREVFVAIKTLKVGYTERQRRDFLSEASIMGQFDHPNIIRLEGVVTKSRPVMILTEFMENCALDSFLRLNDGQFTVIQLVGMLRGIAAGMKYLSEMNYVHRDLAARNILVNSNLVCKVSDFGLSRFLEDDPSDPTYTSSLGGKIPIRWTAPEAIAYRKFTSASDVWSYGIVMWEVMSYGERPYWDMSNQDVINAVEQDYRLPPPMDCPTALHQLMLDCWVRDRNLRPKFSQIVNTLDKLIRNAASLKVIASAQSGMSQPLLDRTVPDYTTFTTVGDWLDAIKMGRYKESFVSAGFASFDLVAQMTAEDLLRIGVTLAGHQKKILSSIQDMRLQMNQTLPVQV
Briefly: Selectivity interaction (KinomeScan (DiscoverX)) EUB0000607a EPHB3. The conditions noted are these: at 10 µM.

In experiment [17] the target is Cyclin-dependent kinase 5/CDK5 activator 1 (Homo sapiens, UniProt Q00535).
The target of experiment [18] is Vascular endothelial growth factor receptor 3 (Homo sapiens, UniProt P35916).
For experiment [19], the target named is Serine/threonine-protein kinase SBK1 (Homo sapiens) (UniProt Q52WX2). Briefly: Selectivity interaction (KinomeScan (DiscoverX)) EUB0000229b SBK1. The conditions noted are these: at 10 µM.
The target in experiment [20] is Sodium-dependent dopamine transporter (Homo sapiens, UniProt Q01959). Briefly: Selectivity interaction (Safety Panel 44tm (Eurofins)) EUB0000162b SLC6A3. To be noted: at 10 µM.
The target in experiment [21] is Casein kinase I isoform delta (Homo sapiens, UniProt P48730). Briefly: Selectivity interaction (Kinase panel (literature)) EUB0001199aCl CSNK1D. The conditions noted are these: at 1 µM.

Where only a bound is given, the exact number is not on record here.

Homeodomain-interacting protein kinase 1, sequence (Q86Z02 whole entry, looked up): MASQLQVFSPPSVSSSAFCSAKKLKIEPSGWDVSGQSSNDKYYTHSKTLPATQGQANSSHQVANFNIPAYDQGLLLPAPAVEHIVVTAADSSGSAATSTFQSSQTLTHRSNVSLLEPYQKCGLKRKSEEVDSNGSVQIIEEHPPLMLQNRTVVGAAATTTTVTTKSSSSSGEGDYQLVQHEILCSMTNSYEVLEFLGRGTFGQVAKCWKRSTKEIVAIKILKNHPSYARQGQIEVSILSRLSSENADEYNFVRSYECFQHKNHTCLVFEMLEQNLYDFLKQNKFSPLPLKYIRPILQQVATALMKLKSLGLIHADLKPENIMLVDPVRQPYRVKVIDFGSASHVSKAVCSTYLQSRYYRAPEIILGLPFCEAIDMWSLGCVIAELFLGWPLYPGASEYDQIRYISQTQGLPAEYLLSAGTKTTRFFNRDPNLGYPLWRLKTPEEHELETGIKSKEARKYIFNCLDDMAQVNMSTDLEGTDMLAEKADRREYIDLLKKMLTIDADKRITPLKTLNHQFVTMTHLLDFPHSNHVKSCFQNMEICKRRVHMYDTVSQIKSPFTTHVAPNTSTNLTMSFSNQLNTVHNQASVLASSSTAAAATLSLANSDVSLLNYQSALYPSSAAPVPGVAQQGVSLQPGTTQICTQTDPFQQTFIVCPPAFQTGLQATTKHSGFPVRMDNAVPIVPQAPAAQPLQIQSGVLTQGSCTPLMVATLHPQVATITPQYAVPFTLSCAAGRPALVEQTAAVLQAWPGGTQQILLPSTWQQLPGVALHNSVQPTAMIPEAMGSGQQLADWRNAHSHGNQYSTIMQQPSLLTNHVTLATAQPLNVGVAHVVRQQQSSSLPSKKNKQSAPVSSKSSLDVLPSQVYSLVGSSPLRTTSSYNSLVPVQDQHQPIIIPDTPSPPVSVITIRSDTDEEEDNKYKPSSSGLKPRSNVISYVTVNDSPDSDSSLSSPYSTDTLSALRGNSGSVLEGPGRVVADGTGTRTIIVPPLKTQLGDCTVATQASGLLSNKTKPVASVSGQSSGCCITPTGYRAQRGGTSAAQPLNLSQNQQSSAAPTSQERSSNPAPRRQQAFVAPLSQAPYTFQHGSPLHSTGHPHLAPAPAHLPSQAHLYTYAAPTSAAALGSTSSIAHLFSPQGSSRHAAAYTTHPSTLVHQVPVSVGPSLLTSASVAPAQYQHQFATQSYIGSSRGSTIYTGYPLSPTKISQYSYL
Epidermal growth factor receptor, sequence (P00533 whole entry): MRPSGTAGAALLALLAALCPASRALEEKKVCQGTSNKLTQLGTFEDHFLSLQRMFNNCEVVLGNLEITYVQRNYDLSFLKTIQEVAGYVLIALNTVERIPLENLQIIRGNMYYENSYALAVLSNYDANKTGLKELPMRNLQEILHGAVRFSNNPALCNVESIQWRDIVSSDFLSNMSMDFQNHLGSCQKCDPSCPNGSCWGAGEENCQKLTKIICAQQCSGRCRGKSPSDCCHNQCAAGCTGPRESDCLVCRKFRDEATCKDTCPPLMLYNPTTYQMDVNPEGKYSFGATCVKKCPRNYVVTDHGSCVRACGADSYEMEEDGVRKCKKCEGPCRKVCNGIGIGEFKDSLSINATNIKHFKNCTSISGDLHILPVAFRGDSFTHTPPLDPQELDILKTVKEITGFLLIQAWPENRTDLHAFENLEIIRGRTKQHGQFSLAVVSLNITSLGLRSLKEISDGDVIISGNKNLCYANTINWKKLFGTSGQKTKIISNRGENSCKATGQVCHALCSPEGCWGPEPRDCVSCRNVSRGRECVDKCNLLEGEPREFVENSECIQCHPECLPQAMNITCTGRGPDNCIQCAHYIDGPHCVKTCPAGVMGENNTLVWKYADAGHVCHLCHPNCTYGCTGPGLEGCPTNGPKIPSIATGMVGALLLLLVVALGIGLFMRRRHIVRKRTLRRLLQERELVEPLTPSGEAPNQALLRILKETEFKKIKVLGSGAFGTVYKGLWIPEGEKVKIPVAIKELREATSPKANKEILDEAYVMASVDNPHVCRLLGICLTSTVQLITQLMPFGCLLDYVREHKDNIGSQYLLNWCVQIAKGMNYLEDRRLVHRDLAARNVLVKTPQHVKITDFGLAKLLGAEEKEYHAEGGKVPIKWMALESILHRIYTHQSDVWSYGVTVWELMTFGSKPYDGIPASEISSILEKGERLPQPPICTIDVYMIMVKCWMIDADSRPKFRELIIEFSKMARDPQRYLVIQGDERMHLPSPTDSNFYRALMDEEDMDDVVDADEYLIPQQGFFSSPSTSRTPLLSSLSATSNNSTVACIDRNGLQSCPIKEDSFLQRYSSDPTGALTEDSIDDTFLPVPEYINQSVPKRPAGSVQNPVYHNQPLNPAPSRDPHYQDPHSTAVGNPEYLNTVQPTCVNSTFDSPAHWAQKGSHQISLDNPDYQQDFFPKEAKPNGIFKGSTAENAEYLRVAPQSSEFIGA
Epidermal growth factor receptor (Homo sapiens), P00533 [UNDEFINED MUTATION], sequence (P00533 whole entry, looked up, change not shown): as the sequence (P00533 whole entry) above
Epidermal growth factor receptor (Homo sapiens), P00533 [G719S], sequence (P00533 whole entry G719S): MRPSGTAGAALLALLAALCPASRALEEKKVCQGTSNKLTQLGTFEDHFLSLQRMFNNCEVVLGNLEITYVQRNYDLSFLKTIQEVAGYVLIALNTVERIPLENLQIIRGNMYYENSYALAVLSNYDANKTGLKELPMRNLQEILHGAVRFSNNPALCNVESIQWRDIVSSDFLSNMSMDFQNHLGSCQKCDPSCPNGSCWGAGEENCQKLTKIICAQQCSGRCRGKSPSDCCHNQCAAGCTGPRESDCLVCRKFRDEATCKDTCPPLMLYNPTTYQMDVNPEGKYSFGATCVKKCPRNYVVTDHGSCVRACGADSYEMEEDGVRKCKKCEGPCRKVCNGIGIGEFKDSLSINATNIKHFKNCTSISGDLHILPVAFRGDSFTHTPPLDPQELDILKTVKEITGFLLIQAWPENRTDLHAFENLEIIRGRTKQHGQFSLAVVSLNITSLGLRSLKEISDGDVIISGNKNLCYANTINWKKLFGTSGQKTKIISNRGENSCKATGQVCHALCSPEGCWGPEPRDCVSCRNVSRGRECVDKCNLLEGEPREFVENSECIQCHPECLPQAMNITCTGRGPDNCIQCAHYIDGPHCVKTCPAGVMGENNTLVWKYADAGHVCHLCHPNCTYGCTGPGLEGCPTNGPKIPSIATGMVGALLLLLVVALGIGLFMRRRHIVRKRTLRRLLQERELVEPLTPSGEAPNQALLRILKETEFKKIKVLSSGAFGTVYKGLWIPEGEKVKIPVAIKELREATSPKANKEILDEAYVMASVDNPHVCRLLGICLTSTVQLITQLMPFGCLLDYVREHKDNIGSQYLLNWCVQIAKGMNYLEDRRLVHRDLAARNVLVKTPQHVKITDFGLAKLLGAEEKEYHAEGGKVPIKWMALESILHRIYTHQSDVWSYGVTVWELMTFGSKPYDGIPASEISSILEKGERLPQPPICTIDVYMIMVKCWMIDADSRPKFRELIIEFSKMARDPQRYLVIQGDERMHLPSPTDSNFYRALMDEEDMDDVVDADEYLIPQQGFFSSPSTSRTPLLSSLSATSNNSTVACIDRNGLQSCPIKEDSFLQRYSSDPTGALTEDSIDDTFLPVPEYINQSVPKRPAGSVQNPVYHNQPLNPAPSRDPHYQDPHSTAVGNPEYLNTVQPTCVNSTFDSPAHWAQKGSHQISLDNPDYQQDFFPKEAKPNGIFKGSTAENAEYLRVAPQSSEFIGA

For the compound `CCn1c(-c2nc3cc(C(=O)N4CCCC(N)C4)ccc3n2C)cc2ccccc21` (stereo unspecified), the pXC50 in experiment [1] came to 5.3 M.
Regarding `Nc1cnc(N2CCc3cc(S(=O)(=O)Nc4c(F)cc(Cl)cc4F)cc(N4CCCC4=O)c32)nc1` [TP-020n], in experiment [2], the % of inhibition was -2.65%.
`CC(=O)Nc1cccc(-n2c(=O)n(C3CC3)c(=O)c3c(Nc4ccc(I)cc4F)n(C)c(=O)c(C)c32)c1`: in experiment [3], the % of control is 107%.
Take `COc1cc(Nc2nc(C)cc(-c3cnn4nc(OC)ccc34)n2)cc(C(F)(F)F)c1`: the % of control is 100% in experiment [4]; 94% in experiment [5]; 68% in experiment [6]; 89% in experiment [7]; 100% in [8]; 93% in experiment [9]. Moreover, the % of control came to 100% in experiment [10], 95% in experiment [11] and 70% in [12].
With `Cc1cc(F)c(C(=O)Nc2cccc(-c3nncn3C(C)C)n2)cc1-n1cnc(C2CC2)c1`, in [13], the % of control was determined as 100%.
With `CC(=O)c1cc(-c2ccccc2OCC2CC2)c2ncccn12`, the % of control in experiment [14] is 90%.
`O=C(NOC[C@H](O)CO)c1ccc(F)c(F)c1Nc1ccc(I)cc1F`: in [15], the % of control worked out at 96%.
As to `CNC(=O)Nc1ccc(-c2nc(N3CC4CCC(C3)O4)c3cnn(C4CCC5(CC4)OCCO5)c3n2)cc1`, the % of control in experiment [16] worked out at 92%.
Consider `CCc1cccc(CC)c1NC(=O)c1nn(C)c2c1CCc1cnc(Nc3ccc(C(=O)NC4CCN(C)CC4)cc3OC(F)(F)F)nc1-2`, for which the IC50 in experiment [17] and in experiment [18] was greater than 10 µM each time.
With `COc1cc(N(C)c2ccnc3ccc(C(F)(F)F)cc23)cc(OC)c1OC`, in [19], the % binding stood at 92%.
As for `CN(C)C(=O)Cn1cc(-c2ccc(-c3cncc4ccccc34)cc2)cn1`, the % of control in experiment [20] was 87%.
With `CN1Cc2nccc(-c3cn(C)nc3-c3ccc(F)cc3)c2C1=O`, the % of inhibition in experiment [21] was 94%.
